Like-named read-outs stand apart in the source and are kept apart here.
Legend:
[1] = test system: cockroaches and other crawling insets; details: 100 mg a.i. (as WP)/m^2; cited from earlier work
flies = details: cited from earlier work
mice = details: cited from earlier work
[2] = cited from earlier work
rats [3] = details: cited from earlier work
chicken = details: cis/trans ratio of 40:60; cited from earlier work
[4] = cited from earlier work; for pH of optimum stability: more stable in acid than in alkaline media
Japanese quail = details: cis/trans ratio of 40:60; cited from earlier work
[5] = cited from earlier work; remark: listed apart in the source
[6] = test system: Brown plant hoppers and Green plant hoppers; assay: Treated paddy leaf bioassay, larval mortality, Colby synergism (Examples 13-14); type: in vivo
Description: In this evaluation, Brown plant hoppers and Green plant hoppers are obtained from laboratory colonies. Paddy leaves are immersed in 1:1 v/v, acetone/water solutions of the test compound, or solution of a combination of the test compounds for a period of about 4 seconds. Following immersion, leaves are allowed to air-dry for 2-3 hours. Plastic bioassay trays containing multiple open-faced wells (4.0×4.0×2.5 cm) are used. Cut portions of a treated leaf, a moistened cotton dental wick and a single third-instar larva are placed into each well. These wells are covered with an adhesive vented clear plastic sheet which is held under constant fluorescent light at about 30° C. for a predetermined period of time. Larval mortality/morbidity is evaluated at 5 days after treatment. All treatments are replicated 3-4 fold in a randomized complete block design with 15-30 larvae per treatment. Using conventional log-probit analysis, the LC50 of each treatment is determined.
Synergism can be calculated by using the Colby's method i.e. the expected (or predicted) response of the combination is calculated by taking the product of the observed response for each individual component of the combination when applied alone divided by 100 and subtracting this value from the sum of observed response for each component when applied alone. Synergism of the combination is then determined by comparing the observed response of the combination to the expected (or predicted) response as calculated from the observed response of each individual component alone. If the observed response of the combination is greater than the expected (or predicted) response, then the combination is said to be synergistic and falls within the definition of synergistic effect. (Colby, S. R., Weeds, 1967(15), p. 20-22)

rats [7] = details: cited from earlier work; remark: listed apart in the source
rabbits = details: cited from earlier work
rats [8] = details: cited from earlier work; remark: listed apart in the source
[9] = in vivo; cited from earlier work
domestic fowl = details: cited from earlier work

For `CC1(C)C(C=C(Cl)Cl)C1C(=O)OCc1cccc(Oc2ccccc2)c1` (stereo not drawn) [Permethrin, 3-phenoxybenzyl(1RS,3 RS; 1 RS, 3SR)-3-(2,2-dichlorovinyl)-2,2-dimethylcyclopropanecarboxylate], the “duration of control of cockroaches and other crawling insets” value [1] is given as greater than 120 days, the “duration of residual control of biting flies in animal housing” value (flies; 200 mg a.i. (as EC)/square meter wall or 30 mg a.i. (as WP)/m^2 wall) is given as less than 60 days and the “Typical oral LD50” value (mice; mice, cis/trans ratio of 40:60) is given as 540 to 2690 mg/kg. For the same compound, the “Solubility in Xylene” value ([2]; 25° C.) was no less than 1 kg/kg, the Solubility in hexane ([2]; 25° C.) was greater than 1 kg/kg and the Solubility in methanol ([2]; 25° C.) was 258 g/kg. The “Typical oral LD50” value (rats [3]; rats, cis/trans ratio of 40:60) was 430 to 4000 mg/kg, the “Typical oral LD50” value (chicken) was greater than 300 mg/kg and the stability to heat ([4]; 50° C.) was no less than 2 years. The “photochemical stability, in words” value ([4]; laboratory studies) was “Some photochemical degradation”, the “pH of optimum stability” value [4] was 4 and the “Typical oral LD50” value (Japanese quail) was greater than 13500 mg/kg.

For “(E)-N′-[(6-chloro-3-pyridyl)methyl]-N-cyano-N-methylacetamidine [Acetamiprid]”, the solubility in water ([5]; 25° C.) is given as 4200 µg/mL, the “acute oral LD50” value (mice; female mice) is given as 184 mg/kg and the “acute oral LD50” value (mice; male mice) is given as 198 mg/kg. For the same compound, the “solubility in organic solvents, in words” value ([2]; acetone, methanol, ethanol, dichloromethane, chloroform, acetonitrile and tetrahydrofuron) was “Soluble”, the “Observed Mortality %” value ([6]; Table 3, Acetamiprid 24 ppm alone) was 47.30% and the “Observed Mortality %” value ([6]; Table 3, Acetamiprid 27 ppm alone) was 69.25%. For the same compound, the “Observed Mortality %” value ([6]; Table 3, Acetamiprid 30 ppm alone) was 72.1%, the “acute oral LD50” value (rats [3]; female rats) was 146 mg/kg and the “acute oral LD50” value (rats [3]; male rats) was 217 mg/kg. The “Acute percutaneous LD50” value (rats [7]; male and female rats) was greater than 2000 mg/kg, the “stability in buffered solutions” value ([4]; pH 4,5,7) was “Stable” and the “stability in buffered solutions” value ([4]; pH 9 and 45° C.) was “Degraded slowly”. For the same compound, the stability under sunlight ([4]; sunlight) was “Stable”, the “irritation to skin and eyes” value (rabbits; rabbits) was “Non irritating” and the “inhalation LC50 (4 h)” value (rats [8]; male and female rats) was greater than 0.29 mg/L.

In the case of `O=[N+]([O-])NC1=NCCN1Cc1ccc(Cl)nc1` [Imidacloprid, 1-(6-chloro-3-pyridylmethyl)-N-nitroimidazolidin-2-yldeneamine], the skin sensitisation [9] is given as “Not a skin sensitiser”, the solubility in n.hexane ([2]; 20° C.) is given as less than 100 µg/mL and the “Observed Mortality %” value ([6]; Table 2, Imidacloprid 24 ppm alone, 5 days after treatment) is given as 55.00%. For the same compound, the “Observed Mortality %” value ([6]; Table 2, Imidacloprid 27 ppm alone) was 69.25%, the “Observed Mortality %” value ([6]; Table 2, Imidacloprid 30 ppm alone) was 72.10% and the “Acute percutaneous LD50 (24 h)” value (rats [7]; rats, 24 h) was greater than 5000 mg/kg. For the same compound, the stability to hydrolysis ([4]; pH 5) was “Stable”, the “irritation to skin and eyes” value (rabbits; rabbit, in vivo) was “Non irritating” and the “inhalation LC50 (4 h)” value (rats [8]; female rats, aerosol) was greater than 5323 mg/m^3 air.

In the case of `CC(C)[C@@H](C(=O)O[C@@H](C#N)c1cccc(Oc2ccccc2)c1)c1ccc(Cl)cc1` (racemic) [Fenvalerate, (RS)-α-cyano-3-phenoxybenzyl (RS)-2-(4-chlorophenyl)-3-methylbutyrate], the “duration of control of flies in cattle sheds” value (flies; 110 mg/aquare meter wall) is given as 60 days, the solubility in water ([5]; 20° C.) is given as less than 1 µg/mL and the “Solubility in acetone, chloroform, cyclohexanone, ethanol, xylene” value ([2]; 23° C.) is given as greater than 1 kg/kg. The Solubility in hexane ([2]; 23° C.) was 155 g/kg, the “acute oral LD50” value (rats [3]; rats) was 451 mg/kg and the “acute oral LD50” value (domestic fowl) was greater than 1600 mg/kg. For the same compound, the “Acute percutaneous LD50” value (rats [7]; rats) was greater than 5000 mg/kg and the “pH of optimum stability” value [4] was 4.

In the case of `CC1(C)C(C=C(Cl)Cl)C1C(=O)OC(C#N)c1cccc(Oc2ccccc2)c1` (racemic) [Cypermethrin, (RS)-α-cyano-3-phenoxybenzyl (1RS, 3RS; IRS, 3SR)-3-(2,2-dichlorovinyl)-2,2-dimethyl cyclopropane carboxylate], the “Observed Mortality %” value ([6]; Table 2, Cypermethrin 80 ppm alone) is reported as 52.5%, the “Observed Mortality %” value ([6]; Table 2, Cypermethrin 85 ppm alone) is reported as 60% and the “Observed Mortality %” value ([6]; Table 2, Cypermethrin 90 ppm alone) is reported as 70%. The “Observed Mortality %” value ([6]; Table 3, Cypermethrin 80 ppm alone) was 60.0%, the “Observed Mortality %” value ([6]; Table 3, Cypermethrin 85 ppm alone) was 65% and the “Observed Mortality %” value ([6]; Table 3, Cypermethrin 90 ppm alone) was 72.0%.
